Results: US10888511B2, “Methods and articles of manufacture for the treatment of skin” (Advanced Collagen Science LLC, priority 2013, dated 2021)

Experiments:
Processed Human Dermis = experiment: Acetylation of processed human skin (epithelium removed): mechanical properties; details: 100 mg/mL in dilute alkaline buffer pH 8.5, 1-minute treatment, vs specimen treated with buffer alone
Experimental: Processed human skin was obtained for treatment. The processed skin was comprised of lyophilized dermis. Two samples were tested, two 2 cm×4 cm specimens. One of specimens was treated with 100 mg/mL of glutaric anhydride. The second specimen was treated with buffer solution alone. The rejuvenation agent was prepared in dilute alkaline buffer solution, pH 8.5, quickly dissolved and applied to the dermis within 15 seconds. Prior to treatment with the active agent, skin specimens were pre-treated with buffer alone. Treatments were completed in 1-minute.

Human Skin [1] = experiment: Acetylation of human skin following dermabrasion (aqueous buffer); type: in vivo; details: 20 mg/mL in 0.3M disodium phosphate pH 8.9, after gentle dermabrasion, temporal defects
Experimental: In this example, glutaric anhydride was applied to temporal defects adjacent to periorbital areas. Skin defects were first subject to gentle dermabrasion followed by application of 0.1M disodium phosphate solution, pH 8.3 for 30 seconds using surgical gauze. Glutaric anhydride (20 mg/mL) was mixed in 0.3M disodium phosphate solution at pH 8.9 and immediately (less than 5 seconds after dissolution) applied to the defects for 30 seconds to 1 minute using surgical gauze. Treatment sites were then rinsed with 0.1M phosphate buffered saline, pH 7.2. Pre-treatment and post-treatment photos were taken and the results evaluated.

Human Skin [2] = experiment: Acetylation of human skin using alcohol penetration enhancer; type: in vivo; details: 50 mg/mL in ethanol, 1 minute, no dermabrasion, up to 5 treatments
Experimental: In this example, glutaric anhydride was applied to temporal defects adjacent to periorbital areas. Skin defects were pretreated by application of 0.1M disodium phosphate solution, pH 8.3 for 30 seconds using surgical gauze. Glutaric anhydride (50 mg/mL) was dissolved in ethanol and applied to the defects for 1 minute using surgical gauze. Treatment sites were then rinsed with 0.1M phosphate buffered saline, pH 7.2. Up to 5 treatments were made to specific skin sites

Human Skin [3] = experiment: Acetylation of human skin using glutaric anhydride in alkaline EDTA solution following pretreatment with alkaline EDTA solution; type: in vivo; details: powder on gauze flushed with 0.035M disodium EDTA pH 9.0, upper cheek
Description: In this example, glutaric anhydride was applied to the cheek. An area of the upper cheek, below the eye, was pretreated with pH adjusted 0.035M disodium EDTA (pH 9.0) applied using a gauze pad. Glutaric anhydride powder was finely ground using a mortar and pestle and rubbed into a second gauze pad. The gauze was placed on the treatment area and flushed with pH adjusted 0.035M disodium EDTA (pH 9.0) to deliver the glutaric anhydride to the treatment site as it dissolved in the EDTA solution. […] Two such applications were performed.

Human Skin (Temple Area) = experiment: Acetylation of human skin (temple area) following dermabrasion, in ethanol; type: in vivo; details: 50 mg/mL in ethanol, approximately 0.25 mL aliquots, 1 minute, after dermabrasion, up to 5 treatments
Experimental: In this example, glutaric anhydride was applied to temporal defects adjacent to periorbital areas. Skin defects were first subject to gentle dermabrasion followed by application of 0.1M disodium phosphate solution, pH 8.3 for 30 seconds using surgical gauze. Glutaric anhydride (50 mg/mL) was dissolved in ethanol. Aliquots of approximately 0.25 mL were applied to the defects for 1 minute using surgical gauze. Treatment sites were then rinsed with 0.1M phosphate buffered saline, pH 7.2. Up to 5 treatments were made to specific skin sites

Human Skin [4] = experiment: Acetylation of human skin without dermabrasion, micro-needle roll or penetration enhancers; type: in vivo; details: 20 mg/mL in 0.3M disodium phosphate pH 8.9, 30 seconds to 1 minute, no dermabrasion
Experimental: In this example, the pre-treatment buffer, 0.1M disodium phosphate solution, pH 8.3, was applied for 30 seconds using surgical gauze. Glutaric anhydride (20 mg/mL) was mixed in 0.3M disodium phosphate solution at pH 8.9 and immediately (less than 5 seconds after dissolution) applied to the defects for 30 seconds to 1 minute using surgical gauze. Treatment sites were then rinsed with 0.1M phosphate buffered saline, pH 7.2. No effect on skin thickness or appearance was noted.

Human Skin [5] = experiment: Acetylation of human skin using glutaric anhydride in vegetable oil without dermabrasion; type: in vivo; details: 30 mg/mL dispersed in vegetable oil, 1 minute, one treatment, no dermabrasion
Experimental: In this example, glutaric anhydride was applied to temporal defects adjacent to periorbital areas. Skin defects were pretreated by application of 0.1M disodium phosphate solution, pH 8.3 for 30 seconds using surgical gauze. Glutaric anhydride powder (30 mg/mL) was dispersed in vegetable oil and gently applied to the wet defects for 1 minute using surgical gauze. The treatment sites were then rinsed with 0.1M phosphate buffered saline, pH 7.2. Only one treatment was made to temporal skin sites.

Human Skin [6] = experiment: Acetylation of human skin using glutaric anhydride powder without dermabrasion; type: in vivo; details: powder (10 mg/mL) applied to wet defects, 1 minute, no dermabrasion, up to 5 treatments
Experimental: In this example, glutaric anhydride was applied to temporal defects adjacent to periorbital areas. Skin defects were pretreated by application of 0.1M disodium phosphate solution, pH 8.3 for 30 seconds using surgical gauze. Glutaric anhydride powder (10 mg/mL) was gently applied to the wet defects for 1 minute, or until the powder dissolved, using surgical gauze. The powder Treatment sites were then rinsed with 0.1M phosphate buffered saline, pH 7.2. Up to 5 treatments were made to specific skin sites

[7] = system: Human Skin (Hand and Temple); experiment: Acetylation of human skin (hand and temple) following dermabrasion, in ethanol or anhydrous alcohol; type: in vivo; details: 50 mg/mL in ethanol or anhydrous alcohol, 1 minute, after dermabrasion, up to 5 treatments
Experimental: In this example, glutaric anhydride was applied to temporal defects adjacent to periorbital areas. Skin defects were first subject to gentle dermabrasion followed by application of 0.1M disodium phosphate solution, pH 8.3 for 30 seconds using surgical gauze. Glutaric anhydride (50 mg/mL) was dissolved in ethanol or anhydrous alcohol and applied to the defects for 1 minute using surgical gauze. Treatment sites were then rinsed with 0.1M phosphate buffered saline, pH 7.2. Up to 5 treatments were made to specific skin sites.

Human Skin [8] = experiment: Acetylation of human skin using glutaric anhydride in pH adjusted vegetable oil without dermabrasion; type: in vivo; details: 30 mg/mL dispersed in vegetable oil adjusted to pH 9.0, 1 minute, one treatment, no dermabrasion
Experimental: In this example, glutaric anhydride was applied to temporal defects adjacent to periorbital areas. Skin defects were pretreated by application of 0.1M disodium phosphate solution, pH 8.3 for 30 seconds using surgical gauze. Glutaric anhydride powder (30 mg/mL) was dispersed in vegetable oil adjusted to a pH of 9.0 using 10N NaOH and gently applied to the wet defects for 1 minute using surgical gauze. The treatment sites were then rinsed with 0.1M phosphate buffered saline, pH 7.2. Only one treatment was made to temporal skin sites.

Human Skin [9] = experiment: Acetylation of human skin using glutaric anhydride in alkaline buffer solution following micro-needle roller treatment; type: in vivo; details: 40 mg/mL in 0.3M disodium phosphate pH 9.1, forearm
Experimental: In this example, glutaric anhydride was applied to the forearm. A skin area approximately 4 mm×4 mm was punctured using a micro-needle roller, followed by pretreated with 0.1M sodium phosphate buffer, pH 8.3 for 30 seconds using cotton swab. Glutaric anhydride powder (40 mg/mL) was dissolved in 0.3M disodium phosphate solution, pH 9.1 and gently applied to the pre-treated skin area for 1 minute using a cotton swab. The sites were final rinsed using an alcohol swab.

Human Skin [10] = experiment: Acetylation of human skin using glutaric anhydride in pH adjusted vegetable oil following micro-needle roller treatment; type: in vivo; details: 40 mg/mL in vegetable oil adjusted to pH 9.1, forearm, 1 minute
Experimental: In this example, glutaric anhydride was applied to the forearm. A skin area approximately 4 mm×4 mm was punctured using a micro-needle roller, followed by pretreated with 0.1M disodium phosphate solution, pH 8.3 for 30 seconds using cotton swab. Glutaric anhydride powder (40 mg/mL) was dispersed in vegetable oil that was adjusted to a pH of 9.1 using granules of sodium hydroxide powder and gently applied to the pre-treated skin area for 1 minute using a cotton swab. The sites were rinsed using an alcohol swab.

[11] = after micro-needle roller, 1 minute

Q: For `O=C1CCCC(=O)O1` [glutaric anhydride], which “Durometer, Change (increase)” value (Processed Human Dermis) is on record?
A: 5.3% increase

Q: And the “Low Chord Modulus, Change (decrease)” value (Processed Human Dermis)?
A: 50.5% decrease

Q: And the “Thickness, Change (increase)” value (Processed Human Dermis)?
A: 18.3% increase

Q: What about the “Water Retention, Change (increase)” value (Processed Human Dermis) of the same compound?
A: 66.8% increase

Q: And the “Appearance of skin defects” value (Human Skin [1])?
A: improvement

Q: What about the “Skin smoothness (visual)” value (Human Skin [2]) of the same compound?
A: minor visual improvement

Q: What about the “Skin thickness at the treatment sites (tactile)” value (“Skin thickness … (tactile)” for short) (Human Skin [2]) of the same compound?
A: tactile increase

Q: What about the “Sensation as the glutaric anhydride penetrated the skin” value (Human Skin [3]) of the same compound?
A: slight burning or tingly sensation

Q: What about the “Redness at the treatment site” value (Human Skin [3]; after gauze removed and site flushed) of the same compound?
A: Some redness

Q: What about the “Persistence of skin thickening” value (Human Skin [3]; after the second application) of the same compound?
A: more than 2 weeks

Q: What about the “Skin thickening at the treatment site” value (Human Skin [3]; after the second application) of the same compound?
A: obvious minor skin thickening

Q: And the “Skin smoothness (visual)” value (Human Skin (Temple Area))?
A: visual improvement

Q: And the “Skin thickness … (tactile)” value (Human Skin (Temple Area))?
A: tactile increase

Q: And the “Effect on skin thickness or appearance” value (Human Skin [4])?
A: No effect

Q: And the “Feel of application sites” value (Human Skin [5])?
A: thicker and softer

Q: What about the “Sensation at treated sites immediately after treatment and for sometime after” value (shortened to “Sensation … for sometime after”) (Human Skin [5]) of the same compound?
A: mild tingly feeling

Q: And the “Skin smoothness (visual)” value (Human Skin [5])?
A: minor visual improvement

Q: What about the “Skin thickness … (tactile)” value (Human Skin [5]) of the same compound?
A: tactile increase

Q: And the “Skin smoothness (visual)” value (Human Skin [6])?
A: No visual improvement

Q: And the “Tactile increase in skin at the treatment sites” value (Human Skin [6])?
A: a tactile increase in skin as observed

Q: And the “Skin appearance (visual)” value [7]?
A: visual improvement

Q: And the “Skin thickness … (tactile)” value [7]?
A: tactile increase

Q: And the “Feel of application sites” value (Human Skin [8])?
A: thicker and softer

Q: And the “Sensation … for sometime after” value (Human Skin [8])?
A: mild tingly feeling

Q: What about the “Skin smoothness (visual)” value (Human Skin [8]) of the same compound?
A: visual improvement

Q: And the “Skin thickness … (tactile)” value (Human Skin [8])?
A: tactile increase

Q: And the “Sensation at treated sites immediately after treatment” value (Human Skin [9]; 1 minute)?
A: mild tingly feeling

Q: What about the “Color of treated sites” value (Human Skin [9]; [11]) of the same compound?
A: slightly red

Q: And the “Feel of application site” value (Human Skin [9]; [11])?
A: felt slightly thicker immediately after treatment only

Q: And the “Effect of repeated treatments on skin appearance” value (Human Skin [9]; after micro-needle roller, repeated treatments)?
A: appeared to enhance beneficial results

Q: What about the “Sensation … for sometime after” value (Human Skin [10]) of the same compound?
A: mild tingly feeling

Q: What about the “Color of treated sites” value (Human Skin [10]; after micro-needle roller) of the same compound?
A: slightly red

Q: What about the “Feel of application site” value (Human Skin [10]; after micro-needle roller) of the same compound?
A: felt thicker immediately after treatment and for several days later

Q: What about the “Skin thickness … (tactile)” value (Human Skin [10]; after micro-needle roller) of the same compound?
A: tactile increase
